Values joined by “and” are separate entries in the source; they are usually repeats but may differ in a detail not shown here. Equal values may be shown once. Read-outs that look alike come from different tables or passages of the source.
Assays:
Ctenocephalides felis [1] = assay: Ctenocephalides felis residual contact assay; settings: for Contact EC50: 48 h, fleas
Experimental: Ctenocephalides felis Residual Contact Assay
A solution of the test compounds, individually and in combination was dispensed onto a substrate placed into a glass vial. The treated surface was allowed to dry before infesting each vial with 10 adult Ctenocephalides felis. The treated vials were held in a controlled environment and assessment was performed at 6, 24 and 48 hours after application in comparison with untreated controls glass vials and solvent-treated glass vials. Compounds were tested in duplicate and two separate trials (n=4).

I. scapularis = assay: In vitro tick contact assay, comparison with standards
Experimental: (§1) A solution of the test compounds was used to coat the inner wall of glass vials and to treat two filter papers. Once dried, one filter paper was placed in the cap of the vial and the other in the bottom of the vial. Each treated vial was infested with 10 ticks. Contact of the ticks with residues was induced by holding the vials in a controlled environment and assessment was performed at 12, 24 and 48 hours after application in comparison with untreated glass vials and solvent-treated glass vials. Compounds were tested in duplicate and two separate trials (n=4).

R. sanguineus = assay: as above
Experimental: as §1

D. variabilis = assay: as above
Experimental: as §1

Ctenocephalides felis [2] = settings: for Ingestion EC50: fleas
Experimental: In Vitro Evaluation of Ingestion Activity Against Fleas (Ctenocephalides Felis)
For flea ingestion tests, an aliquot of each compound stock was added to organic bovine blood contained in an artificial feeding container, with a final DMSO concentration of 0.5%. Ten newly emerged unfed fleas, Ctenocephalides felis, from a laboratory colony, 0-7 days old, were aspirated into a chamber and exposed to the appropriate feeding container and held in a controlled environment at 35° C. Fleas were evaluated for % mortality at 24, 48, and 72 hours post infestation. Fleas showing normal movement and/or jumping ability were considered viable and those showing no movement after tapping the vials were scored as dead. The compound+blood mixture was replaced every 24 hours.

A. americanum = assay: In vitro tick contact assay, comparison with standards
Experimental: as §1

[3] = system: Dirofilaria immitis microfilariae; assay: Dirofilaria immitis microfilariae motility assay; settings: 72 h, read-out: concentration at which active, microfilariae motility
Aedes aegypti = assay: In vitro evaluation of ingestion activity against mosquitoes; settings: at 20 hours, compound in bovine blood, read-out: concentration at which active, mosquito ingestion
Experimental: In Vitro Evaluation of Ingestion Activity Against Mosquitoes (Aedes aegypti)
A solution of test compounds is added to bovine blood contained in a feeding chamber to reach the desired final concentration. Blood spiked with DMSO is prepared to serve as control. Adult female mosquitoes are introduced at the bottom of the chamber and allowed to feed on blood mixtures containing DMSO or test compounds for 30 minutes. Fully engorged mosquitoes are sorted into clean chambers after the blood meal and monitored for survival over 3 days. Replicates containing 10 mosquitoes are performed with each test compound concentration and results calculated as % mortality at specific time points.

| Compound | Contact EC50 (Ctenocephalides felis [1]) [ppm] | I. scapularis Contact EC50 (I. scapularis; 24 h) [ppm] | I. scapularis Contact EC50 (I. scapularis; 48 h) [ppm] | R. sanguineus Contact EC50 (R. sanguineus; 24 h) [ppm] | R. sanguineus Contact EC50 (R. sanguineus; 48 h) [ppm] | D. variabilis Contact EC50 (D. variabilis; 24 h) [ppm] | D. variabilis Contact EC50 (D. variabilis; 48 h) [ppm] | Ingestion EC50 (Ctenocephalides felis [2]; 2 h) [ppm] | Ingestion EC50 (Ctenocephalides felis [2]; 24 h) [ppm] | A. americanum Contact EC50 (A. americanum; 24 h) | A. americanum Contact EC50 (A. americanum; 48 h) [ppm] | minimal effective concentration [3] [µM] | minimal effective concentration (Aedes aegypti) [µg/mL] | flea potency by contact relative to commercially available standards (Ctenocephalides felis [1]; versus fluralaner, afoxolaner) | flea potency by ingestion relative to commercially available standards (Ctenocephalides felis [2]; versus fluralaner, afoxolaner, (+/−)sarolaner) |
| --- | --- | --- | --- | --- | --- | --- | --- | --- | --- | --- | --- | --- | --- | --- | --- |
| O=C(CNC(=O)c1ccc(C2=NOC(c3cc(Cl)cc(C(F)(F)F)c3)(C(F)(F)F)C2)c2ccccc12)NCC(F)(F)F (centres unmarked) [Afoxolaner] | >50 | 17.8 ± 5.9 | 5.31 ± 1.8 | >50 | 20.2 ± 5.0 | >50 | 12.35 ± 0.5 | 6.0 ± 2.9 | 0.13 ± 0.05 | 31.6 ppm and > 50 ppm | 11.3 ± 2.3 |  |  |  |  |
| Cc1cc(C2=NOC(c3cc(Cl)cc(Cl)c3)(C(F)(F)F)C2)ccc1C(=O)NCC(=O)NCC(F)(F)F (centres unmarked) [Fluralaner] | >50 | 6.4 ± 3.3 | 1.3 ± 0.2 | 37.1 ± 16.3 | 9.8 ± 5.0 | 18.4 ± 3.0 | 4.9 ± 1.4 | 1.6 ± 0.7 | 0.06 ± 0.02 |  | 20.4 ± 10.7 |  |  |  |  |
| CS(=O)(=O)CC(=O)N1CC2(C1)OCc1cc(C3=NO[C@@](c4cc(Cl)c(F)c(Cl)c4)(C(F)(F)F)C3)ccc12 (racemic) [(+/−) Sarolaner, Sarolaner] |  |  |  | 37.8 ± 12.2 | 12.7 ± 0.1 |  |  |  | 1.23 ± 0.11 |  |  |  |  |  |  |
| O=C(C1CCOCC1)N1CC2(C1)OCc1cc(C3=NSC(c4cc(Cl)c(F)c(Cl)c4)(C(F)(F)F)C3)ccc12 (centres unmarked) [Compound 19, [6-[5-(3,5-dichloro-4-fluoro-phenyl)-5-(trifluoromethyl)-4H-isothiazol-3-yl]spiro[1H-isobenzofuran-3,3′-azetidine]-1′-yl]-tetrahydropyran-4-yl-methanone] |  |  |  |  |  |  |  |  |  |  |  | < 10 | < 1 |  |  |
| O=C(CC(F)(F)F)N1CC2(C1)OCc1cc(C3=NSC(c4cc(Cl)c(F)c(Cl)c4)(C(F)(F)F)C3)ccc12 (centres unmarked) [Compound 1, 1-[6-[5-(3,5-dichloro-4-fluoro-phenyl)-5-(trifluoromethyl)-4H-isothiazol-3-yl]spiro[1H-isobenzofuran-3,3′-azetidine]-1′-yl]-3,3,3-trifluoro-propan-1-one] | 29.0 ± 0.3 | 2.0 ± 0.4 | 0.04 ± 0.02 | 17.0 ± 3.8 | 4.6 ± 3.0 | 12.2 ± 0.6 | 5.0 ± 1.6 | 2.6 ± 0.3 | 0.20 ± 0.10 | 13.5 ± 5.1 ppm | 2.7 ± 0.4 | < 10 | < 1 | superior potency by contact | comparable potency by ingestion |

Reference: patent US9420793B2, “Antiparasitic compounds” (Avista Pharma Solutions, priority 2015, dated 2016)
